These results are taken from PubChem BioAssay (NCI).

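Growth conditions: 96-well plates. Treatment: test compound, 48 hours, 5 concentrations. Analysis: linear interpolation between bracketing concentrations; unreached endpoints set to highest concentration. GI50 = concentration required for 50% inhibition of growth. Definition used: TGI = concentration required for complete inhibition of growth.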

Some test systems named below: UO-31 renal; SR leukemia; OVCAR-8 ovarian; HCT-15 colon; ACHN renal; K-562 leukemia; SK-OV-3 ovarian; SK-MEL-5 melanoma; KM12 colon; NCI-H23 lung.
What all share (experiment): DTP human tumour cell line panel, 48 h

As for `O=C(NCCCCCCCNC(=O)OCc1ccc2c(Cl)cc(Cl)c(O)c2n1)OCc1ccc2c(Cl)cc(Cl)c(O)c2n1`, the GI50 (in general, the concentration that inhibits growth by half) was 0.321 µM in the test with UO-31 renal; 0.267 µM in the test with SR leukemia; 0.395 µM in the test with OVCAR-8 ovarian; 0.221 µM with HCT-15 colon; 0.26 µM with ACHN renal; 0.319 µM in the test with K-562 leukemia. Also, the GI50 in the test on SK-OV-3 ovarian is 3.93 µM; with SK-MEL-5 melanoma it was 0.966 µM; with KM12 colon it was 1.18 µM; in the test on NCI-H23 lung it was 1.49 µM. The total growth inhibition concentration (TGI) (commonly the concentration at which net growth stops) amounted to 1.29 µM in the test on UO-31 renal; 1.41 µM in the test on SR leukemia; 1.83 µM with OVCAR-8 ovarian; 0.542 µM with HCT-15 colon; 0.698 µM in the test with ACHN renal; 4.41 µM in the test on K-562 leukemia. Further, the concentration for total growth inhibition (TGI) came to 14 µM in the test with SK-OV-3 ovarian, 2.26 µM in the test on SK-MEL-5 melanoma, 2.87 µM with KM12 colon and 3.2 µM in the test with NCI-H23 lung.

In the case of `O=C(c1ccc(Cl)cc1)C1OC12C(=O)Nc1ccccc12` (stereo not given), the TGI in the test on UO-31 renal was found to be 29.4 µM; in the test on SR leukemia, 3.22 µM; with OVCAR-8 ovarian, 36 µM; in the test on HCT-15 colon it was 11.2 µM; in the test on ACHN renal, 28.5 µM; with K-562 leukemia it was 11.2 µM. Moreover, the TGI is 60.4 µM with SK-OV-3 ovarian, 24.6 µM with SK-MEL-5 melanoma, 32.5 µM with KM12 colon and 32.9 µM in the test on NCI-H23 lung.

As to `Cc1nc(N)nc2ccccc12`, the TGI with UO-31 renal, in the test with SR leukemia, in the test on OVCAR-8 ovarian, with HCT-15 colon, in the test on ACHN renal and in the test with K-562 leukemia was greater than 100 µM throughout. The TGI in the test on SK-OV-3 ovarian, in the test on SK-MEL-5 melanoma, with KM12 colon and with NCI-H23 lung was greater than 100 µM throughout.

As for `COC(=O)/C(=N/NC(N)=O)C(C(=O)OC)C(=O)C(=O)Nc1ccc(Cl)cc1` (stereo not given), the TGI with UO-31 renal is greater than 100 µM; in the test on SR leukemia it was 46.5 µM; in the test on OVCAR-8 ovarian, greater than 100 µM; in the test on HCT-15 colon, greater than 100 µM; with ACHN renal it was greater than 100 µM; with K-562 leukemia, greater than 62.6 µM. The TGI in the test with SK-OV-3 ovarian, in the test with SK-MEL-5 melanoma, in the test on KM12 colon and in the test on NCI-H23 lung was greater than 100 µM each time.

With `COc1nc(NC2OC(COC(C)=O)C(OC(C)=O)C(OC(C)=O)C2OC(C)=O)c(-c2csc(N)n2)c(=O)n1C` (stereo not given), the TGI with UO-31 renal, in the test with SR leukemia, in the test on OVCAR-8 ovarian, with HCT-15 colon, in the test with ACHN renal and in the test on K-562 leukemia was greater than 100 µM each time. For the same compound, the TGI in the test with SK-OV-3 ovarian, in the test on SK-MEL-5 melanoma, in the test on KM12 colon and in the test with NCI-H23 lung was greater than 100 µM throughout.

`Cc1cc(Cl)ccc1NS(=O)(=O)c1ccc(-c2cnc(C3CC3)o2)cc1`: the GI50 in the test on UO-31 renal is 0.619 µM; with SR leukemia, 0.0967 µM; in the test on OVCAR-8 ovarian, 0.427 µM; with HCT-15 colon it was 0.0908 µM; in the test on ACHN renal it was 0.649 µM; with K-562 leukemia, 0.0723 µM. In addition, the GI50 was 4.32 µM with SK-OV-3 ovarian, 0.517 µM in the test with SK-MEL-5 melanoma, 0.211 µM with KM12 colon and 0.556 µM in the test with NCI-H23 lung. Moreover, the concentration for total growth inhibition (TGI) in the test with UO-31 renal was 16.9 µM; in the test with SR leukemia it was 28.4 µM; in the test on OVCAR-8 ovarian it was 15.2 µM; in the test on HCT-15 colon it was 12.2 µM; in the test on ACHN renal, 20.5 µM; with K-562 leukemia it was greater than 100 µM. In addition, the TGI in the test with SK-OV-3 ovarian was 26.2 µM; in the test on SK-MEL-5 melanoma it was 6.88 µM; in the test with KM12 colon it was 15.3 µM; in the test on NCI-H23 lung it was 17.5 µM.

Take `CC1(C)OC2C(COS(N)(=O)=O)SC(n3cnc4cncnc43)C2O1` (stereo not given): the GI50 with UO-31 renal, with SR leukemia, in the test with OVCAR-8 ovarian, in the test on HCT-15 colon, in the test on ACHN renal and in the test on K-562 leukemia was greater than 100 µM each time. Moreover, the GI50 in the test on SK-OV-3 ovarian, with SK-MEL-5 melanoma, with KM12 colon and in the test with NCI-H23 lung was greater than 100 µM each time. The TGI in the test on UO-31 renal, with SR leukemia, in the test with OVCAR-8 ovarian, in the test with HCT-15 colon, with ACHN renal and in the test on K-562 leukemia was greater than 100 µM throughout. Further, the TGI with SK-OV-3 ovarian, with SK-MEL-5 melanoma, in the test on KM12 colon and with NCI-H23 lung was greater than 100 µM each time.

Consider `O=c1c2ccccc2oc2ccc(OCCCCCCN3CCCCCC3)cc12`, for which the GI50 in the test on UO-31 renal is 2.05 µM; in the test with SR leukemia, 1.95 µM; in the test with OVCAR-8 ovarian, 4.66 µM; in the test on HCT-15 colon, 2.09 µM; in the test on ACHN renal it was 3.68 µM; in the test with K-562 leukemia it was 1.96 µM. The GI50 is 2.77 µM in the test with SK-OV-3 ovarian, 1.68 µM in the test on SK-MEL-5 melanoma, 3.2 µM in the test with KM12 colon and 3.1 µM with NCI-H23 lung. Also, the TGI in the test with UO-31 renal stood at 6.32 µM; with SR leukemia it was 4.93 µM; with OVCAR-8 ovarian it was 17.9 µM; in the test on HCT-15 colon, 11.1 µM; in the test with ACHN renal it was 13.2 µM; in the test on K-562 leukemia, 4.6 µM. In addition, the TGI with SK-OV-3 ovarian was 8.29 µM; in the test on SK-MEL-5 melanoma, 3.04 µM; in the test with KM12 colon, 11.5 µM; with NCI-H23 lung, 11.7 µM.

Regarding `CN(C=O)/C=C/c1cc(O)ccc1O`, the TGI in the test with UO-31 renal was 47 µM; in the test with SR leukemia, 51.1 µM; with OVCAR-8 ovarian, 72.4 µM; in the test with HCT-15 colon it was 65.8 µM; in the test on ACHN renal, 29.7 µM; with K-562 leukemia, 62.1 µM. Moreover, the total growth inhibition concentration (TGI) is greater than 100 µM in the test with SK-OV-3 ovarian, greater than 66.9 µM in the test on SK-MEL-5 melanoma, greater than 100 µM with KM12 colon and 64.3 µM in the test on NCI-H23 lung.

In the case of `COc1ccc(CCc2cc(OC)c(OC)c(OC)c2)cc1`, the TGI was 83.2 µM in the test on UO-31 renal; 0.78 µM in the test with SR leukemia; 32.2 µM in the test on OVCAR-8 ovarian; 10.2 µM in the test on HCT-15 colon; 76.9 µM with ACHN renal; 13.7 µM in the test with K-562 leukemia. For the same compound, the TGI was greater than 32.2 µM in the test with SK-OV-3 ovarian, 12 µM in the test with SK-MEL-5 melanoma, 5.77 µM in the test with KM12 colon and 26.9 µM in the test on NCI-H23 lung.
